Reference: patent publication US20260132125A1, “PESTICIDALLY ACTIVE FUSED BICYCLIC HETEROAROMATIC COMPOUNDS” (priority 2022, published 2026)

Columns and labels:
Format in all cases: in vivo
[1] = system: Chilo suppressalis; test: Example B1: activity against Chilo suppressalis (striped rice stemborer), artificial diet; details: for percent control (mortality, anti-feedant effect or growth inhibition) at 200 ppm: 144 h, L2 larvae, 6 days after infestation, read-out: control (at least one of mortality, anti-feedant effect, growth inhibition)
Protocol: 24-well microtiter plates with artificial diet were treated with aqueous test solutions prepared from 10′000 ppm DMSO stock solutions by pipetting. After drying, the plates were infested with L2 larvae (6-8 per well). The samples were assessed for mortality, anti-feeding effect, and growth inhibition in comparison to untreated samples 6 days after infestation. Control of Chilo suppressalis by a test sample is given when at least one of the categories mortality, anti-feedant effect, and growth inhibition is higher than the untreated sample.

[2] = system: Diabrotica balteata; test: Example B2: activity against Diabrotica balteata (corn root worm), maize sprouts; details: 96 h, L2 larvae, 4 days after infestation, read-out: effect in at least one of the two categories (mortality or growth inhibition)
Protocol: Maize sprouts placed onto an agar layer in 24-well microtiter plates were treated with aqueous test solutions prepared from 10′000 ppm DMSO stock solutions by spraying. After drying, the plates were infested with L2 larvae (6 to 10 per well). The samples were assessed for mortality and growth inhibition in comparison to untreated samples 4 days after infestation. The following compounds gave an effect of at least 80% in at least one of the two categories (mortality or growth inhibition) at an application rate of 200 ppm: P1, P2, P3, P4, P5, P7, P8, P9, P10, P11, P12, P13, P14, P15, P16, P17, P18, P19, P20, P21, P22, P23, P24, P25, P26, P27, P28, P29, P30, P31, P33, P34, P35, P36, P37, P38, P39, P40, P41, P42, P43, P45, P46, P47, P48, P49, P50, P51, P52, P53, P55, P57, P58, P59, P60, P61, P62, P63, P64, P65, P66, P67, P69, P71, P75, P81, P82, P83.

[3] = system: Myzus persicae; test: Example B4: activity against Myzus persicae (green peach aphid), intrinsic activity; details: 120 h, test rate 12 ppm, 5 days after infestation
Protocol: Test compounds prepared from 10′000 ppm DMSO stock solutions were applied by pipette into 24-well microtiter plates and mixed with sucrose solution. The plates were closed with a stretched Parafilm. A plastic stencil with 24 holes was placed onto the plate and infested pea seedlings were placed directly on the Parafilm. The infested plate was closed with a gel blotting paper and another plastic stencil and then turned upside down. The samples were assessed for mortality 5 days after infestation.

[4] = system: Plutella xylostella; test: Example B5: activity against Plutella xylostella (diamond back moth), artificial diet, eggs; details: 192 h, 8 days after infestation, read-out: effect in at least one of the two categories (mortality or growth inhibition)
Protocol: 24-well microtiter plates with artificial diet were treated with aqueous test solutions prepared from 10′000 ppm DMSO stock solutions by pipetting. After drying, Plutella eggs were pipetted through a plastic stencil onto a gel blotting paper and the plate was closed with it. The samples were assessed for mortality and growth inhibition in comparison to untreated samples 8 days after infestation. The following compounds gave an effect of at least 80% in at least one of the two categories (mortality or growth inhibition) at an application rate of 200 ppm: P1, P2, P3, P4, P5, P6, P7, P8, P9, P10, P11, P12, P13, P14, P15, P16, P17, P18, P19, P20, P21, P22, P23, P24, P25, P26, P27, P28, P29, P30, P31, P32, P33, P34, P35, P36, P37, P38, P39, P40, P41, P42, P43, P44, P45, P46, P47, P48, P49, P50, P51, P52, P53, P54, P55, P57, P58, P59, P60, P61, P62, P63, P64, P65, P66, P67, P69, P70, P71, P72, P73, P74, P75, P77, P78, P81, P82, P83.

[5] = system: Spodoptera littoralis; test: Example B6: activity against Spodoptera littoralis (Egyptian cotton leaf worm), cotton leaf discs; details: foliar, 72 h, 200 ppm, L1 larvae, 3 days after infestation, read-out: control (at least one of mortality, anti-feedant effect, growth inhibition)
Protocol: Cotton leaf discs were placed onto agar in 24-well microtiter plates and sprayed with aqueous test solutions prepared from 10′000 ppm DMSO stock solutions. After drying the leaf discs were infested with five L1 larvae. The samples were assessed for mortality, anti-feeding effect, and growth inhibition in comparison to untreated samples 3 days after infestation. Control of Spodoptera littoralis by a test sample is given when at least one of the categories mortality, anti-feedant effect, and growth inhibition is higher than the untreated sample.

| SMILES | percent control (mortality, anti-feedant effect or growth inhibition) at 200 ppm [1] [%] | percent effect (mortality or growth inhibition) at 200 ppm [2] [%] | mortality at 12 ppm [3] [%] | percent effect (mortality or growth inhibition) at 200 ppm [4] [%] | percent control (mortality, anti-feedant effect or growth inhibition) at 200 ppm [5] [%] | mortality at 12.5 ppm ([1]; 12.5 ppm) [%] |
| --- | --- | --- | --- | --- | --- | --- |
| CNC(=O)c1cc(-n2ncnc2[C@H](C)Nc2ncnc3c(Cl)cc(I)cc23)ncn1 [Compound P4, 6-[5-[(1S)-1-[(8-chloro-6-iodo-quinazolin-4-yl)amino]ethyl]-1,2,4-triazol-1-yl]-N-methyl-pyrimidine-4-carboxamide] | ≥ 80 | ≥ 80 | ≥ 80 | ≥ 80 | ≥ 80 |  |
| CNC(=O)c1cc(-n2ncnc2[C@H](C)N(C)c2ncnc3c(Br)cc(Br)cc23)ncn1 [Compound P11, 6-[5-[(1S)-1-[(6,8-dibromoquinazolin-4-yl)-methyl-amino]ethyl]-1,2,4-triazol-1-yl]-N-methyl-pyrimidine-4-carboxamide] | ≥ 80 | ≥ 80 | ≥ 80 | ≥ 80 | ≥ 80 |  |
| CNC(=O)c1cc(-n2ncnc2[C@H](C)Nc2ncnc3c(Br)cc(Br)cc23)ncn1 [Compound P12, 6-[5-[(1S)-1-[(6,8-dibromoquinazolin-4-yl)amino]ethyl]-1,2,4-triazol-1-yl]-N-methyl-pyrimidine-4-carboxamide] | ≥ 80 | ≥ 80 | ≥ 80 | ≥ 80 | ≥ 80 |  |
| C[C@H](Nc1ncnc2c(Cl)cc(I)cc12)c1ncnn1-c1cc(C#N)ncn1 [Compound P18, 6-[5-[(1S)-1-[(8-chloro-6-iodo-quinazolin-4-yl)amino]ethyl]-1,2,4-triazol-1-yl]pyrimidine-4-carbonitrile] | ≥ 80 | ≥ 80 | ≥ 80 | ≥ 80 | ≥ 80 |  |
| C[C@H](Nc1ncnc2c(C(F)(F)F)cc(Cl)cc12)c1ncnn1-c1cc(C#N)ncn1 [Compound P19, 6-[5-[(1S)-1-[[6-chloro-8-(trifluoromethyl)quinazolin-4-yl]amino]ethyl]-1,2,4-triazol-1-yl]pyrimidine-4-carbonitrile] | ≥ 80 | ≥ 80 | ≥ 80 | ≥ 80 | ≥ 80 | 80 |
| C[C@H](Nc1ncnc2c(C(F)(F)F)cc(Cl)cc12)c1ncnn1-c1cc(C(=O)NC2CC2)ncn1 [Compound P23, 6-[5-[(1S)-1-[[6-chloro-8-(trifluoromethyl)quinazolin-4-yl]amino]ethyl]-1,2,4-triazol-1-yl]-N-cyclopropyl-pyrimidine-4-carboxamide] | ≥ 80 | ≥ 80 | ≥ 80 | ≥ 80 | ≥ 80 |  |
| C[C@H](Nc1ncnc2c(C(F)(F)F)cc(Cl)cc12)c1ncnn1-c1cc(C(=O)NC2CS(=O)(=O)C2)ncn1 [Compound P24, 6-[5-[(1S)-1-[[6-chloro-8-(trifluoromethyl)quinazolin-4-yl]amino]ethyl]-1,2,4-triazol-1-yl]-N-(1,1-dioxothietan-3-yl)pyrimidine-4-carboxamide] | ≥ 80 | ≥ 80 | ≥ 80 | ≥ 80 | ≥ 80 |  |
| C[C@H](Nc1ncnc2c(C(F)(F)F)cc(Cl)cc12)c1ncnn1-c1cc(C(=O)NC2CSC2)ncn1 [Compound P25, 6-[5-[(1S)-1-[[6-chloro-8-(trifluoromethyl)quinazolin-4-yl]amino]ethyl]-1,2,4-triazol-1-yl]-N-(thietan-3-yl)pyrimidine-4-carboxamide] | ≥ 80 | ≥ 80 | ≥ 80 | ≥ 80 | ≥ 80 |  |
| C[C@H](Nc1ncnc2c(C(F)(F)F)cc(Cl)cc12)c1ncnn1-c1cc(C(=O)NO)ncn1 [Compound P26, 6-[5-[(1S)-1-[[6-chloro-8-(trifluoromethyl)quinazolin-4-yl]amino]ethyl]-1,2,4-triazol-1-yl]pyrimidine-4-carbohydroxamic acid] | ≥ 80 | ≥ 80 | ≥ 80 | ≥ 80 | ≥ 80 |  |
| CNC(=O)c1cc(-n2ncnc2[C@H](C)N(C)c2ncnc3c(Cl)cc(I)cc23)ncn1 [Compound P34, 6-[5-[(1S)-1-[(8-chloro-6-iodo-quinazolin-4-yl)-methyl-amino]ethyl]-1,2,4-triazol-1-yl]-N-methyl-pyrimidine-4-carboxamide] | ≥ 80 | ≥ 80 | ≥ 80 | ≥ 80 | ≥ 80 |  |
| C[C@H](Nc1ncnc2c(Br)cc(Br)cc12)c1ncnn1-c1ncc(C(N)=O)s1 [Compound P36, 2-[5-[(1S)-1-[(6,8-dibromoquinazolin-4-yl)amino]ethyl]-1,2,4-triazol-1-yl]thiazole-5-carboxamide] | ≥ 80 | ≥ 80 | ≥ 80 | ≥ 80 | ≥ 80 |  |
| C[C@H](Nc1ncnc2c(Br)cc(Br)cc12)c1ncnn1-c1cnc(C(=O)NCC#N)cn1 [Compound P72, N-(cyanomethyl)-5-[5-[(1S)-1-[(6,8-dibromoquinazolin-4-yl)amino]ethyl]-1,2,4-triazol-1-yl]pyrazine-2-carboxamide] | ≥ 80 |  | ≥ 80 | ≥ 80 | ≥ 80 |  |
| C[C@H](Nc1ncnc2c(I)cc(Cl)cc12)c1ncnn1-c1cnc(C(=O)NCC#N)cn1 [Compound P73, 5-[5-[(1S)-1-[(6-chloro-8-iodo-quinazolin-4-yl)amino]ethyl]-1,2,4-triazol-1-yl]-N-(cyanomethyl)pyrazine-2-carboxamide] | ≥ 80 |  | ≥ 80 | ≥ 80 | ≥ 80 |  |
